pIC50: −log10 of the molar value. Where two headings read alike, the source gives them in different places.
How the values were obtained:
[1] = target: T1, human GST-p38 kinase alpha (Homo sapiens, UniProt Q16539); test: p38 kinase in vitro assay, second format, phosphorylation of EGFRP with 33P-ATP; format: biochemical; details: read-out: p38α Kinase Assay IC50
T1 construct: The coding region of the human p38a cDNA was obtained by PCR-amplification from RNA isolated from the human monocyte cell line THP.1; made in house; host or cells: E. coli DH10B
T1 sequence (Q16539 whole entry): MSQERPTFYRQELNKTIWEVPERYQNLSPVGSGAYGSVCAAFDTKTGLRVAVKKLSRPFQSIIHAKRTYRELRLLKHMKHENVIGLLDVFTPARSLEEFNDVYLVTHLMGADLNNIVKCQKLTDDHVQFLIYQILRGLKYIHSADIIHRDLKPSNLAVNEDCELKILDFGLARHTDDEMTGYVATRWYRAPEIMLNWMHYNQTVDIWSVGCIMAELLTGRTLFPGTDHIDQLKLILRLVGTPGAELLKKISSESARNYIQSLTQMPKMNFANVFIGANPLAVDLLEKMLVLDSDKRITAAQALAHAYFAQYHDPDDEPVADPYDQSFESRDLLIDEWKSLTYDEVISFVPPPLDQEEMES
Outline: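 Activated human GST-p38α (pre-activated with GST-MKK6, 1 h, 30 °C) phosphorylates EGFR 21-mer peptide (200 μM) with 50 μM ATP plus γ-33P-ATP, pH 7.5, 60 min at room temperature. Unreacted ATP removed by AG 1×8 resin; supernatant scintillation-counted.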

human TNF = test: TNF inhibition: human whole blood assay; format: cell-based; details: Homo sapiens, LPS, read-out: TNF Inhibition-Human Whole Blood Assay
TNF-α = test: Rat assay: LPS-challenged rats, serum TNF-α by ELISA; format: in vivo; details: Rattus norvegicus, po; for inhibition in vivo at 1 mg/kg: Table 10, dose 1.0 mg/kg
[2] = Table 10, dose 5.0 mg/kg, read-out: Rat LPS Assay % Inhibition
[3] = read-out: Rat LPS Assay % Inhibition

| SMILES | melting point | pIC50 ([1]; Table 10, 10% DMSO, @ 1.0 hour) | pIC50 (human TNF; Table 10, human whole blood) | further results |
| --- | --- | --- | --- | --- |
| Cc1cc(-c2n[nH]c(N3CCN(C)CC3)c2-c2ccncc2)ccc1Cl [Example A-407, 1-[5-(3-methyl-4-chlorophenyl)-4-(4-pyridinyl)-1H-pyrazol-3-yl]-4-methylpiperazine] | 236.7 to 239.3 °C | 6.74 | 5.41 | inhibition in vivo at 5 mg/kg (TNF-α; [2]): 21%; inhibition in vivo at 20 mg/kg (TNF-α; Table 10, dose 20.0 mg/kg): 82% |
| CN1CCN(c2[nH]nc(-c3cccc(Br)c3)c2-c2ccncc2)CC1 [Example A-409, 1-[5-(3-bromophenyl)-4-(4-pyridinyl)-1H-pyrazol-3-yl]-4-methylpiperazine] | 222.5 to 223.4 °C | 6.68 | 5.28 | inhibition in vivo at 5 mg/kg (TNF-α; [2]): 41%; inhibition in vivo at 20 mg/kg (TNF-α; Table 10, dose 20.0 mg/kg): 89% |
| C#CCN1CCN(c2n[nH]c(-c3ccc(Cl)cc3)c2-c2ccncc2)CC1 [Example A-333, 1-[5-(4-chlorophenyl)-4-(4-pyridinyl)-1H-pyrazol-3-yl]-4-(2-propynyl)piperazine] | 247 °C (dec.) | – | – | pIC50 ([1]; Table 8, 10% DMSO): 7.28; pIC50 (human TNF; Table 8, human whole blood): 6.23; inhibition in vivo at 5 mg/kg (TNF-α; Table 8, dose 5.0 mg/kg, read-out: Rat LPS Assay % Inhibition): 69% |
| Fc1ccc(-c2[nH]ncc2-c2ccnc(Nc3ccccc3F)n2)cc1 [Example A-325, N-(2-fluorophenyl)-4-[3-(4-fluorophenyl)-1H-pyrazol-4-yl]-2-pyrimidinamine] | 239 to 240 °C | – | – | pIC50 ([1]; Table 8, 10% DMSO): > 7.00; pIC50 (human TNF; Table 8, human whole blood): 7.24; inhibition in vivo at 3 mg/kg (TNF-α; Table 8, dose 3.0 mg/kg, read-out: Rat LPS Assay % Inhibition): 25%; inhibition in vivo at 30 mg/kg (TNF-α; Table 8, dose 30.0 mg/kg): 11% |
| CN1CCN(c2[nH]nc(-c3ccc(Br)cc3)c2-c2ccncc2)CC1 [Example A-439] | 270.2 to 270.7 °C | 6.82 | 5.25 | inhibition in vivo at 5 mg/kg (TNF-α; [2]): 58%; inhibition in vivo at 20 mg/kg (TNF-α; Table 10, dose 20.0 mg/kg): 93% |
| N#CCSc1[nH]nc(-c2ccc(Cl)cc2)c1-c1ccncc1 [Example A-456] | 230 to 230.5 °C | 6.92 | 6.01 | inhibition in vivo at 1 mg/kg (TNF-α; [3]): 36%; inhibition in vivo at 5 mg/kg (TNF-α; [2]): 48%; inhibition in vivo at 20 mg/kg (TNF-α; Table 10, dose 20.0 mg/kg): 53% |
| COCCSc1[nH]nc(-c2ccc(Cl)cc2)c1-c1ccncc1 [Example A-469, 3-(4-chlorophenyl)-5-[(2-methoxyethyl)-thio]-4pyridin-4-yl-pyrazole] | 189.2 to 190.2 °C | 7.02 | 5.14 | inhibition in vivo at 5 mg/kg (TNF-α; [2]): 51%; inhibition in vivo at 20 mg/kg (TNF-α; Table 10, dose 20.0 mg/kg): 68% |
| CN1CCN(c2n[nH]c(-c3cccc(Cl)c3)c2-c2ccncc2)CC1 [Example A-327, 1-[5-(3-chlorophenyl)-4-(4-pyridinyl)-1-H-pyrazol-3-yl]-4-methylpiperazine] | 229 to 231 °C | – | – | pIC50 ([1]; Table 8, 10% DMSO): 6.82; pIC50 (human TNF; Table 8, human whole blood): 6.74; inhibition in vivo at 20 mg/kg (TNF-α; Table 8, dose 20.0 mg/kg): 83% |
| Nc1[nH]nc(-c2ccc(Cl)cc2)c1-c1ccncc1 [Example A-427, 5-amino-3-(4-chlorophenyl)-4-(pyridin-4-yl)pyrazole] | > 300 °C | 6.72 | 4.62 | inhibition in vivo at 5 mg/kg (TNF-α; [2]): 56%; inhibition in vivo at 20 mg/kg (TNF-α; Table 10, dose 20.0 mg/kg): 77% |
| Cc1ccccc1-c1n[nH]c(N2CCN(C)CC2)c1-c1ccncc1 [Example A-408, 1-[5-(2-tolyl)-4-(4-pyridinyl)-1H-pyrazol-3-yl]-4-methylpiperazine] | 244 to 244.2 °C | 5.25 | 4.93 | inhibition in vivo at 5 mg/kg (TNF-α; [2]): 20%; inhibition in vivo at 20 mg/kg (TNF-α; Table 10, dose 20.0 mg/kg): 49% |
| Clc1ccc(-c2n[nH]c(SC3CCNCC3)c2-c2ccncc2)cc1 [Example A-459] | 211.1 to 211.2 °C | 7.57 | 6.59 | inhibition in vivo at 1 mg/kg (TNF-α; [3]): 0%; inhibition in vivo at 5 mg/kg (TNF-α; [2]): 54%; inhibition in vivo at 20 mg/kg (TNF-α; Table 10, dose 20.0 mg/kg): 80% |
| CN1CCN(c2[nH]nc(-c3ccc(C(C)(C)C)cc3)c2-c2ccncc2)CC1 [Example A-414, 1-[5-(4-tert-butylphenyl)-4-(4-pyridinyl)-1H-pyrazol-3-yl]-4-methylpiperazine] | 243.6 to 244.3 °C | 5.02 | 4.95 | inhibition in vivo at 5 mg/kg (TNF-α; [2]): 3%; inhibition in vivo at 20 mg/kg (TNF-α; Table 10, dose 20.0 mg/kg): 14% |
| C=Cc1ccc(C(=O)C(=C2SCS2)c2ccncc2)cc1 [Example A-403] | 176.6 to 176.7 °C | 5.31 | < 4.60 | – |
| COC(=O)CSc1[nH]nc(-c2ccc(Cl)cc2)c1-c1ccncc1 [Example A-457] | 192.8 to 195.2 °C | 6.40 | < 4.60 | – |
| N#CCCSc1[nH]nc(-c2ccc(Cl)cc2)c1-c1ccncc1 [Example A-483] | 205.7 to 206.5 °C | 6.52 | 6.29 | – |
| O=C(C(=C1SCS1)c1ccncc1)c1ccc(Cl)cc1 [Example A-390] | 185.3 to 185.4 °C | 4.82 | < 4.60 | – |

| SMILES | melting point | pIC50 ([1]; Table 10, 10% DMSO, @ 1.0 hour) | pIC50 (human TNF; Table 10, human whole blood) | further results |
| --- | --- | --- | --- | --- |
| Clc1ccc(-c2n[nH]c(OC3CCOC3)c2-c2ccncc2)cc1 (stereo not drawn) [Example A-443] | > 300 °C | 6.33 | 5.31 | – |
| Cc1cc(C(=O)C(=C2SCS2)c2ccncc2)ccc1Br [Example A-405] | 167.1 to 167.5 °C | 5.31 | < 4.60 | – |
| C=CCSc1[nH]nc(-c2ccc(Cl)cc2)c1-c1ccncc1 [Example A-479] | 207.3 to 208.1 °C | 7.14 | 5.53 | – |
| Cc1ccc(-c2[nH]nc(N3CCN(C)CC3)c2-c2ccncc2)cc1 [Example A-416, 1-[5-(4-methylphenyl)-4-(4-pyridinyl)-1H-pyrazol-3-yl]-4-methylpiperazine] | 243 to 246.8 °C | 7.39 | 5.29 | – |
| COc1ccc(CSc2[nH]nc(-c3ccc(F)cc3)c2-c2ccncc2)cc1 [Example A-452] | 214.7 to 215.8 °C | 5.54 | 6.62 | – |
| N#Cc1cccc(C(=O)C(=C2SCS2)c2ccncc2)c1 [Example A-406] | 168.6 to 168.7 °C | 5.14 | < 4.60 | – |
| CNC(=O)CSc1[nH]nc(-c2ccc(Cl)cc2)c1-c1ccncc1 [Example A-462] | 284 to 288.4 °C | 5.78 | < 4.60 | – |
| N#CCCCSc1[nH]nc(-c2ccc(Cl)cc2)c1-c1ccncc1 [Example A-475] | 216.7 to 216.9 °C | 6.55 | 5.29 | – |
| CN(C)CCCNC(=O)CSc1[nH]nc(-c2ccc(Cl)cc2)c1-c1ccncc1 [Example A-463] | 168.8 to 169.5 °C | 5.78 | < 4.60 | – |
| Cc1ccc(C(=O)C(=C2SCS2)c2ccncc2)cc1 [Example A-400] | 209.1 to 215.1 °C | 5.32 | < 4.60 | – |
| COc1[nH]nc(-c2ccc(Cl)cc2)c1-c1ccncc1 [Example A-446] | 265.3 °C | 6.05 | 5.47 | – |
| CC(C)(C)c1ccc(C(=O)C(=C2SCS2)c2ccncc2)cc1 [Example A-398] | 172.1 to 173.1 °C | 4.34 | < 4.60 | – |
| C#CCSc1[nH]nc(-c2ccc(Cl)cc2)c1-c1ccncc1 [Example A-478] | 212.7 to 213.2 °C | 6.74 | 6.31 | – |
| Clc1ccc(-c2n[nH]c(SCCc3c[nH]c4ccccc34)c2-c2ccncc2)cc1 [Example A-481] | 211.9 to 213.2 °C | 6.70 | < 4.60 | – |
| Fc1ccc(-c2n[nH]c(SCC3OCCO3)c2-c2ccncc2)cc1 [Example A-451] | 202.1 to 205.4 °C | 7.11 | 4.82 | – |
